Biological target: Mitogen-activated protein kinase kinase kinase 5 (Homo sapiens) (UniProt Q99683)
Assay: ligand-induced stabilization of human MAP3K5 kinase – biophysical, DSF, SYPRO orange, recombinant protein (AID 515)
Settings: recombinant MAP3K5, DSF thermal shift, at 10 µM, buffer 10 mM HEPES, pH 7.5, NaCl 150 mM, active compounds read high

Mitogen-activated protein kinase kinase kinase 5 (Homo sapiens), sequence (Q99683 whole entry, looked up): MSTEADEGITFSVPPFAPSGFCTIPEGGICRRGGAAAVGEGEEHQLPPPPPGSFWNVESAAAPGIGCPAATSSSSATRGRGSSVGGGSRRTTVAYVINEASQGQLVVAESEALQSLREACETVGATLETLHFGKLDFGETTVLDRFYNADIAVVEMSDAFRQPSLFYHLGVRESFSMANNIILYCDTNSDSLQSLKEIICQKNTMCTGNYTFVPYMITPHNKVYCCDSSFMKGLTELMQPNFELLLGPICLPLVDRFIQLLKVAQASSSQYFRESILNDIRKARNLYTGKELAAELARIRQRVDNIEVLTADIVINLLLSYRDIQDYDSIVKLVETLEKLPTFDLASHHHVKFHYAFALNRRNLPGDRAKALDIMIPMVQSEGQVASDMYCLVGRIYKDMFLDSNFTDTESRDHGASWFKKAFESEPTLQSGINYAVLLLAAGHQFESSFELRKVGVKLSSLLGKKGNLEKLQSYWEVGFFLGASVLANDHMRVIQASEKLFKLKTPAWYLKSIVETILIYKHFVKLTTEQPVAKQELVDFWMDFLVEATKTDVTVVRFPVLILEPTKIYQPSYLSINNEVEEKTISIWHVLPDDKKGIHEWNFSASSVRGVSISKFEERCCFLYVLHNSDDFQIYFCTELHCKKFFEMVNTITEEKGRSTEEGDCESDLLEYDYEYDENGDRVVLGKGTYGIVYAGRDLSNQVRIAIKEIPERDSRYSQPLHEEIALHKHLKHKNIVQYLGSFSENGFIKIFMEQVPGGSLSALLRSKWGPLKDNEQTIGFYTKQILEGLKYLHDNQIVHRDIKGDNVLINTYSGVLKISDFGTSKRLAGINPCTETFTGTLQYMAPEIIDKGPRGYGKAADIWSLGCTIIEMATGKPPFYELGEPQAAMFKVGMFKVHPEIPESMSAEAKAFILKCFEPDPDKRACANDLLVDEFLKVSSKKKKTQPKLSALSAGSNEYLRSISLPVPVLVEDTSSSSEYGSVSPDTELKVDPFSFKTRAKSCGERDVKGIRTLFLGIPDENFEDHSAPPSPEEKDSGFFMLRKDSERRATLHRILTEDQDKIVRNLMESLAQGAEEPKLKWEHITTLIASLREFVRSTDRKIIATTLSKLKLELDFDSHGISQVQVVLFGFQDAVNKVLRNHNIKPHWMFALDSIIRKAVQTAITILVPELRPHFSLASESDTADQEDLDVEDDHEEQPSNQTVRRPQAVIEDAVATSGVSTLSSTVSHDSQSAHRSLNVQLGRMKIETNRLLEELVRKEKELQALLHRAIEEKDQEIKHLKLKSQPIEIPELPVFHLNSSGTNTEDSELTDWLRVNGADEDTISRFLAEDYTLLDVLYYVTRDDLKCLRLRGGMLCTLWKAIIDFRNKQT

SMILES: O=C1NCc2c1c1c3ccccc3[nH]c1c1[nH]c3ccccc3c21
- Tm shift (with 50 µM L-Arg/L-Glu (1:1)): 8.53 Celsius

SMILES: O=c1[nH]cnc2scc(-c3cccs3)c12
- Tm shift: 3.7 Celsius

SMILES: Cc1cc(C=C2C(=O)C=CC2=O)cc(C)c1O
- Tm shift (with 50 µM L-Arg/L-Glu (1:1)): 3.1 Celsius

SMILES: CCN(CC)CCNC(=O)c1c(C)[nH]c(/C=C2\C(=O)Nc3ccc(Cl)cc32)c1C
- Tm shift (with 50 µM L-Arg/L-Glu (1:1)): 6.43 Celsius

SMILES: NC1=N/C(=C2/CCNC(=O)c3[nH]c(Br)cc32)C(=O)N1
- Tm shift: 8.7 Celsius
- Tm shift (with 50 µM L-Arg/L-Glu (1:1)): 12.5 Celsius

SMILES: O=C(c1ccc(Nc2nccc(-c3cc4ccccc4s3)n2)cc1)N1CCC(N2CCCC2)CC1
- Tm shift: 5.1 Celsius

SMILES: N#Cc1ccc(-c2cnc3ccc(NC4CCOCC4)nn23)cc1
- Tm shift: 3.5 Celsius

SMILES: CC1N=C2SC=CN2C(=O)C1CCN1CCC(=C(c2ccccc2)c2ccc(F)cc2)CC1 (stereo not drawn)
- Tm shift: 4.8 Celsius
- Tm shift (with 50 µM L-Arg/L-Glu (1:1)): 6.07 Celsius

SMILES: O=C1NC(=O)c2c1c1c3ccccc3n3c1c1c2c2ccccc2n1[C@@H]1CCC3O1
- Tm shift (with 50 µM L-Arg/L-Glu (1:1)): 6.97 Celsius

SMILES: O=Nc1c(-c2c(O)[nH]c3cc(Br)ccc23)[nH]c2ccccc12
- Tm shift (with 50 µM L-Arg/L-Glu (1:1)): 8.7 Celsius

SMILES: O=C1c2ccccc2-c2n[nH]c3cccc1c23
- Tm shift (with 50 µM L-Arg/L-Glu (1:1)): 8.63 Celsius

SMILES: COc1cccc(N=Cc2c(O)[nH]c3ccccc23)c1
- Tm shift: 3.2 Celsius

SMILES: CCOc1c(Br)ccc2c1sc1nc[nH]c(=O)c12
- Tm shift: 3.9 Celsius

SMILES: OCC(O)CCO/N=C1/C(c2c(O)[nH]c3ccccc23)=Nc2ccccc21 (stereo not drawn)
- Tm shift: 5.6 Celsius

SMILES: O=Nc1c(-c2c(O)[nH]c3ccc(I)cc23)[nH]c2ccccc12
- Tm shift: 5.72 Celsius

SMILES: COc1ccc2c(c1)/C(=C/c1cnc[nH]1)C(=O)N2
- Tm shift (with 50 µM L-Arg/L-Glu (1:1)): 5.19 Celsius

SMILES: O=Nc1c(-c2c(O)[nH]c3ccccc23)[nH]c2ccccc12
- Tm shift: 6.1 Celsius

SMILES: Cc1c2ccncc2c(C)c2c1[nH]c1ccccc12
- Tm shift: 6.3 Celsius

SMILES: O=c1c(O)c(-c2ccc(O)c(O)c2)oc2cc(O)ccc12
- Tm shift (with 50 µM L-Arg/L-Glu (1:1)): 3.96 Celsius

SMILES: O=C1Nc2ccccc2/C1=C/c1ccc[nH]1
- Tm shift (with 50 µM L-Arg/L-Glu (1:1)): 5.01 Celsius

SMILES: Cn1cc(/C=C2\C(=O)Nc3ccc(S(N)(=O)=O)cc32)c2ccccc21
- Tm shift: 10 Celsius

SMILES: O=C1Nc2ccccc2/C1=C\c1cnc[nH]1
- Tm shift: 4.76 Celsius

SMILES: CC(O)(O)C1(O)C[C@@H]2O[C@@]1(C)n1c3ccccc3c3c4c(c5c6ccccc6n2c5c31)C(=O)NC4 (stereo partly drawn)
- Tm shift (with 50 µM L-Arg/L-Glu (1:1)): 14.1 Celsius

SMILES: Nc1nc(Nc2ccc(S(N)(=O)=O)cc2)nn1C(=S)Nc1c(F)cccc1F
- Tm shift: 16.9 Celsius

SMILES: NC(=O)Nc1sc(-c2ccccc2)cc1C(N)=O
- Tm shift (with 50 µM L-Arg/L-Glu (1:1)): 5.94 Celsius

SMILES: O=C(Nc1ccc(N2CCOCC2)cc1)Nc1ccc(Cl)c(Cl)c1
- Tm shift: 5.7 Celsius

SMILES: O=c1c(O)c(-c2ccc(O)c(O)c2)oc2cc(O)cc(O)c12
- Tm shift: 3.7 Celsius

SMILES: Cc1ccc2c(c1)=C(c1[nH]c(=S)[nH]c1O)C(=O)N=2
- Tm shift: 4.5 Celsius

SMILES: O=Nc1c(-c2c(O)[nH]c3ccc(S(O)(O)O)cc23)[nH]c2ccccc12
- Tm shift: 4.04 Celsius

SMILES: NC1=N/C(=C2\CCNC(=O)c3[nH]ccc32)C(=O)N1
- Tm shift (with 50 µM L-Arg/L-Glu (1:1)): 4.65 Celsius

SMILES: CC(C)(C)c1nc2c3cc[nH]c(=O)c3c3cc(F)ccc3c2[nH]1
- Tm shift (with 50 µM L-Arg/L-Glu (1:1)): 8.26 Celsius
